The values below come from patent publication US10100045B2, “3-aryl-2H-pyrazolo[4,3-b]pyridine compounds and their use as AMPA receptor modulators” (Janssen Pharmaceutica NV, priority 2016, dated 2018).

GluA1o-γ8 (GRIA1o-CACNG8 fusion construct; TARP γ8 dependent AMPA receptor), sequence (P42261 other isoform, or with tags, fused parts or gaps): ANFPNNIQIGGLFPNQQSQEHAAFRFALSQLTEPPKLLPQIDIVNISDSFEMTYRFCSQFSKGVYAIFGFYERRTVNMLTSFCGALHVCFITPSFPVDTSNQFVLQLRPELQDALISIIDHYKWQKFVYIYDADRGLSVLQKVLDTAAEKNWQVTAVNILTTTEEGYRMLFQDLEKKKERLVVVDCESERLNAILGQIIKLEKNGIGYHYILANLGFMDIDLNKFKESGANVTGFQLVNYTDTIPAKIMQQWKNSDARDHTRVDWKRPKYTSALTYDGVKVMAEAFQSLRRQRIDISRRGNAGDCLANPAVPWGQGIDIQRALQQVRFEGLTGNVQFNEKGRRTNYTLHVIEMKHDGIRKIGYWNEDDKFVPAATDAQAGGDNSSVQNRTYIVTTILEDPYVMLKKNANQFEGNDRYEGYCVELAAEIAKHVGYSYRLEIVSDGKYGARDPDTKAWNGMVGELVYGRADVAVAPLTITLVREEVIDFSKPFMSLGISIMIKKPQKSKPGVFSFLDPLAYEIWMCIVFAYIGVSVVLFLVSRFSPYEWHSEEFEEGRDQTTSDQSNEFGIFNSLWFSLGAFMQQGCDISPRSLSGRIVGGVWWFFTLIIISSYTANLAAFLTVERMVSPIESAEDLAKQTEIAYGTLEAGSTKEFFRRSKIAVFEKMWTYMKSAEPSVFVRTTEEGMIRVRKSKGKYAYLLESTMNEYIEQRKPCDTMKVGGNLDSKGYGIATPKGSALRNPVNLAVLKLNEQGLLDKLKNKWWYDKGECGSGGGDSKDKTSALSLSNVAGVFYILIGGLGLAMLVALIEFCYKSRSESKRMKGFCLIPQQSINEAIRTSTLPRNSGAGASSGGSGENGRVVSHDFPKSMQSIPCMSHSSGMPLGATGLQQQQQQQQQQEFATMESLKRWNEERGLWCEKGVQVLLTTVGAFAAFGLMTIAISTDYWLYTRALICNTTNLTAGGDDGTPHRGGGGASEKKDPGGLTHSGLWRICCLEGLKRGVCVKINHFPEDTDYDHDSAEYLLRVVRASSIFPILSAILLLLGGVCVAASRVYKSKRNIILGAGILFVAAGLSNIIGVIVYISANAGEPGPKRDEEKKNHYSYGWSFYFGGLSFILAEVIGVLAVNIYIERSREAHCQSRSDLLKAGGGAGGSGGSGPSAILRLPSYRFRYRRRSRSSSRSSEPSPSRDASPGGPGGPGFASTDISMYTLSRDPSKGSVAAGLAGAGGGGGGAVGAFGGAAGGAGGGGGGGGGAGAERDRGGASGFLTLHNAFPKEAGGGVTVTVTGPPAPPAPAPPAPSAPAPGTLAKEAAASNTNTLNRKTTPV

In this experiment the target is GluA1o-γ8 (GRIA1o-CACNG8 fusion construct; TARP γ8 dependent AMPA receptor) (Homo sapiens (Human), UniProt P42261+Q8WXS5). Nature of the experiment: Calcium flux assay (FLIPR), inhibition of glutamate response of GluA1o-γ8 channel. The settings on record: HEK293 cells stably expressing GRIA1o-CACNG8 fusion; 15 μM glutamate; negative log of the IC50 in molar. Format: cell-based. The source says:
This assay was used to test compounds for their ability to inhibit TARP γ8 dependent AMPA receptor activity. The AMPA receptor is a non-selective cation channel activated by glutamate. Ionotropic glutamate receptors normally desensitize too rapidly to allow detectable calcium influx in a FLIPR assay (Strange et al. (2006). “Functional characterisation of homomeric ionotropic glutamate receptors GluR1-GluR6 in a fluorescence-based high throughput screening assay.” Comb Chem High Throughput Screen 9(2): 147-158). But, this desensitization is incomplete, and a substantial steady-state current remains in the sustained presence of glutamate (Cho et al. (2007). “Two families of TARP isoforms that have distinct effects on the kinetic properties of AMPA receptors and synaptic currents.” Neuron 55(6): 890-904). An in vitro assay was used to determine the potency of test compounds as inhibitors of the glutamate response of the channel formed by GluA1o-γ8. To ensure a 1:1 stoichiometry of GluA1o and γ8 subunits in the expressed channel, a fusion of the cDNAs for GRIA1o and CACNG8 was used. Following Shi et al (2009) “The stoichiometry of AMPA receptors and TARPs varies by neuronal cell type.” Neuron 62(5): 633-640), the C-terminus of the cDNA for GRIA1o was fused to the N-terminus of the cDNA for γ8. The linker sequence was QQQQQQQQQQEFAT. Channels expressed with this construct appear to have similar properties to channels formed by co-expression of GRIA1o with an excess of CACNG8 (Shi et al. 2009). A clonal cell line in HEK293 cells stably expressing this construct, with a geneticin selection marker, was generated for use in this assay.
Cell expressing the GRIA1o-CACNG8 fusion construct were grown in a monolayer in 96- or 384-well microtiter plates. They were washed with assay buffer (135 mM NaCl, 4 mM KCl, 3 mM CaCl2, 1 mM MgCl2, 5 mM glucose, 10 mM HEPES, pH 7.4, 300 mOs) using a Biotek EL405 plate washer. The cells were then loaded with a calcium-sensitive dye (Calcium-5 or Calcium-6, Molecular Devices) and the test compounds at a range of concentrations. Calcium flux following the addition of 15 μM glutamate was monitored using a Molecular Devices FLIPR Tetra. The fluorescence in each well was normalized to the fluorescence of negative and positive control wells. The negative control wells had no added compounds, and the positive control wells had been incubated with 10 μM CP465022 (a non-subtype-selective AMPA receptor antagonist) (Lazzaro et al. (2002). “Functional characterization of CP-465,022, a selective, noncompetitive AMPA receptor antagonist.” Neuropharmacology 42(2): 143-153). The responses to glutamate as functions of the test compound concentrations were fitted to a four-parameter logistic function. The fitted parameter corresponding to the midpoint was taken to be the potency of inhibition of the compound. The data in Table 3 below illustrates the observed potentcy for the compounds described herein. pIC50 refers to the negative log of the IC50 in molar.
Take `Cn1nc2ccc(C(F)(F)F)nc2c1-c1ccc2[nH]c(=O)[nH]c2c1` [Example 1, 5-(2-Methyl-5-(trifluoromethyl)-2H-pyrazolo[4,3-b]pyridin-3-yl)-1,3-dihydro-2H-benzo[d]imidazol-2-one]: the pIC50 turned out to be 6.5.
For the molecule `Cc1cc(-c2c3nc(C(F)(F)F)ccc3nn2C)cc2c1NC(=O)C2` [Example 2, 7-Methyl-5-(2-methyl-5-(trifluoromethyl)-2H-pyrazolo[4,3-b]pyridin-3-yl)indolin-2-one], the pIC50 turned out to be 7.9.
As for `Cc1cc(-c2c3nc(C(F)(F)F)ccc3nn2C(F)F)cc2c1NC(=O)C2` [Example 3, 5-[2-(Difluoromethyl)-5-(trifluoromethyl)pyrazolo[4,3-b]pyridin-3-yl]-7-methyl-indolin-2-one], the pIC50 is 9.0.
On to `CCn1nc2ccc(C(F)(F)F)nc2c1-c1ccc2[nH]c(=O)[nH]c2c1` [Example 4, 5-(2-Ethyl-5-(trifluoromethyl)-2H-pyrazolo[4,3-b]pyridin-3-yl)-1,3-dihydro-2H-benzo[d]imidazol-2-one], for which the pIC50 is 7.0.
In the case of `CC(C)n1nc2ccc(C(F)(F)F)nc2c1-c1ccc2[nH]c(=O)[nH]c2c1` [Example 5, 5-(2-Isopropyl-5-(trifluoromethyl)-2H-pyrazolo[4,3-b]pyridin-3-yl)-1,3-dihydro-2H-benzo[d]imidazol-2-one], the pIC50 stood at 7.6.
`O=c1[nH]c2ccc(-c3c4nc(C(F)(F)F)ccc4nn3CC3CCC3)cc2[nH]1` [Example 6, 5-(2-(Cyclobutylmethyl)-5-(trifluoromethyl)-2H-pyrazolo[4,3-b]pyridin-3-yl)-1,3-dihydro-2H-benzo[d]imidazol-2-one]: the pIC50 is 6.9.
With `O=c1[nH]c2ccc(-c3c4nc(C(F)(F)F)ccc4nn3C3CCCC3)cc2[nH]1` [Example 7, 5-(2-Cyclopentyl-5-(trifluoromethyl)-2H-pyrazolo[4,3-b]pyridin-3-yl)-1,3-dihydro-2H-benzo[d]imidazol-2-one], the pIC50 stood at 7.8.
On to `Cc1cc(-c2c3nc(C(F)(F)F)ccc3nn2C2CCCC2)cc2cn[nH]c12` [Example 8, 2-Cyclopentyl-3-(7-methyl-1H-indazol-5-yl)-5-(trifluoromethyl)-2H-pyrazolo[4,3-b]pyridine], for which the negative-log IC50 (pIC50) turned out to be 9.9.
The same measure, in the same setting: in the case of `O=c1[nH]c2ccc(-c3c4nc(C(F)(F)F)ccc4nn3-c3ccccc3)cc2[nH]1` [Example 9, 5-(2-Phenyl-5-(trifluoromethyl)-2H-pyrazolo[4,3-b]pyridin-3-yl)-1,3-dihydro-2H-benzo[d]imidazol-2-one] it was 8.8; in that of `O=C1Cc2cc(-c3c4nc(C(F)(F)F)ccc4nn3-c3ccccc3)ccc2N1` [Example 10, 5-(2-Phenyl-5-(trifluoromethyl)-2H-pyrazolo[4,3-b]pyridin-3-yl)indolin-2-one], 8.2; in that of `FC(F)(F)c1ccc2nn(-c3ccccc3)c(-c3ccc4[nH]ncc4c3)c2n1` [Example 11, 3-(1H-Indazol-5-yl)-2-phenyl-5-(trifluoromethyl)-2H-pyrazolo[4,3-b]pyridine], 8.5.
Take `FC(F)(F)c1ccc2nn(C3CCC3)c(-c3ccc4[nH]ncc4c3)c2n1` [Example 12, 2-Cyclobutyl-3-(1H-indazol-5-yl)-5-(trifluoromethyl)-2H-pyrazolo[4,3-b]pyridine]: the pIC50 is 9.2.
Regarding `COCCn1nc2ccc(C(F)(F)F)nc2c1-c1ccc2[nH]ncc2c1` [Example 13, 3-(1H-Indazol-5-yl)-2-(2-methoxyethyl)-5-(trifluoromethyl)-2H-pyrazolo[4,3-b]pyridine], the pIC50 worked out at 6.1.
Take `FC(F)(F)c1ccc2nn(-c3ccccn3)c(-c3ccc4[nH]ncc4c3)c2n1` [Example 14, 3-(1H-Indazol-5-yl)-2-(pyridin-2-yl)-5-(trifluoromethyl)-2H-pyrazolo[4,3-b]pyridine]: the pIC50 is on record as 6.9.
For `Cc1cc(-c2c3nc(C(F)(F)F)ccc3nn2C)cc2cn[nH]c12` [Example 15, 2-Methyl-3-(7-methyl-1H-indazol-5-yl)-5-(trifluoromethyl)-2H-pyrazolo[4,3-b]pyridine], the pIC50 came out at 9.0.
Consider `Cn1nc2ccc(C(F)(F)F)nc2c1-c1cc(Cl)c2[nH]ncc2c1` [Example 16, 3-(7-Chloro-1H-indazol-5-yl)-2-methyl-5-(trifluoromethyl)-2H-pyrazolo[4,3-b]pyridine], for which the pIC50 was 9.5.
As for `CCn1nc2ccc(C(F)(F)F)nc2c1-c1cc(C)c2c(c1)CC(=O)N2` [Example 17, 5-(2-Ethyl-5-(trifluoromethyl)-2H-pyrazolo[4,3-b]pyridin-3-yl)-7-methylindolin-2-one], the pIC50 was 8.3.
Consider `CCn1nc2ccc(C(F)(F)F)nc2c1-c1cc(Cl)c2c(c1)CC(=O)N2` [Example 18, 7-Chloro-5-(2-ethyl-5-(trifluoromethyl)-2H-pyrazolo[4,3-b]pyridin-3-yl)indolin-2-one], for which the pIC50 amounted to 8.6.
For the molecule `CCn1nc2ccc(C(F)(F)F)nc2c1-c1cc(C)c2[nH]ncc2c1` [Example 19, 2-Ethyl-3-(7-methyl-1H-indazol-5-yl)-5-(trifluoromethyl)-2H-pyrazolo[4,3-b]pyridine], the IC50 was 0.794 nM.
For `CCn1nc2ccc(C(F)(F)F)nc2c1-c1cc(Cl)c2[nH]ncc2c1` [Example 20, 3-(7-Chloro-1H-indazol-5-yl)-2-ethyl-5-(trifluoromethyl)-2H-pyrazolo[4,3-b]pyridine], the pIC50 is 9.4.
For the molecule `Cc1cc(-c2c3nc(C(F)(F)F)ccc3nn2C(C)C)cc2c1NC(=O)C2` [Example 21, 5-(2-Isopropyl-5-(trifluoromethyl)-2H-pyrazolo[4,3-b]pyridin-3-yl)-7-methylindolin-2-one], the pIC50 turned out to be 9.4.
In the case of `CC(C)n1nc2ccc(C(F)(F)F)nc2c1-c1cc(Cl)c2c(c1)CC(=O)N2` [Example 22, 7-Chloro-5-(2-isopropyl-5-(trifluoromethyl)-2H-pyrazolo[4,3-b]pyridin-3-yl)indolin-2-one], the pIC50 worked out at 9.6.
In the case of `Cc1cc(-c2c3nc(C(F)(F)F)ccc3nn2C(C)C)cc2cn[nH]c12` [Example 23, 2-Isopropyl-3-(7-methyl-1H-indazol-5-yl)-5-(trifluoromethyl)-2H-pyrazolo[4,3-b]pyridine], the pIC50 amounted to 9.6.
The same measure, in the same setting: in the case of `CC(C)n1nc2ccc(C(F)(F)F)nc2c1-c1cc(Cl)c2[nH]ncc2c1` [Example 24, 3-(7-Chloro-1H-indazol-5-yl)-2-isopropyl-5-(trifluoromethyl)-2H-pyrazolo[4,3-b]pyridine] it was 10.2.
As for `Cc1cc(-c2c3nc(C(F)(F)F)ccc3nn2C2CCC2)cc2c1NC(=O)C2` [Example 25, 5-(2-Cyclobutyl-5-(trifluoromethyl)-2H-pyrazolo[4,3-b]pyridin-3-yl)-7-methylindolin-2-one], the pIC50 was 10.3.
As for `O=C1Cc2cc(-c3c4nc(C(F)(F)F)ccc4nn3C3CCC3)cc(Cl)c2N1` [Example 26, 7-Chloro-5-(2-cyclobutyl-5-(trifluoromethyl)-2H-pyrazolo[4,3-b]pyridin-3-yl)indolin-2-one], the pIC50 came out at 10.5.
`Cc1cc(-c2c3nc(C(F)(F)F)ccc3nn2C2CCC2)cc2cn[nH]c12` [Example 27, 2-Cyclobutyl-3-(7-methyl-1H-indazol-5-yl)-5-(trifluoromethyl)-2H-pyrazolo[4,3-b]pyridine]: the pIC50 is on record as 10.7.
